Key:
Serine protease 1 = target: T1, Serine protease 1 (Bos taurus, UniProt P00760)
T1 sequence (P00760 whole entry): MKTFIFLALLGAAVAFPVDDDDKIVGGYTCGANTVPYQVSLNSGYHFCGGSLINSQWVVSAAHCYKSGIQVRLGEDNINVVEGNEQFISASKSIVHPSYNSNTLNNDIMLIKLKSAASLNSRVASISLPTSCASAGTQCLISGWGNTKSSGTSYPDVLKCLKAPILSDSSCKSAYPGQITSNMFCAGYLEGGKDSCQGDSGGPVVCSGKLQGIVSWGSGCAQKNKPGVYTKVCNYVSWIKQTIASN
Description: Compound was tested for the inhibition of trypsin

Chymotrypsinogen A = Chymotrypsinogen A (Bos taurus, UniProt P00766)
Description: Compound was tested for the inhibition of chymotrypsin

Description for physchem: Dissociation constant of compound was determined

Compound	pKa	Ki (Serine protease 1) [mM]	Ki (Chymotrypsinogen A) [mM]	pKa (physchem)
OB(O)c1ccccc1 [PHENYLBORONIC ACID]	8.85	10.2	–	–
CB(O)c1ccccc1 [PHENYL METHYL BORINIC ACID]	–	–	0.03	8.1

— ChEMBL document CHEMBL1127999, “Diphenylborinic acid is a strong inhibitor of serine proteases” (Bioorg Med Chem Lett, 1994)
